Results from US20050276765A1, “Preventing skin damage” (priority 2004, published 2005).

Key:
mice ears = assay: Mouse ear thickness after a single UVB irradiation and topical application for five days
Method: Prior to the experiment, the thickness of mice ears (FVB strain, female, 7 weeks of age, n=3-4/group) was measured with a thickness gauge (Mitsutoyo Corp.). […] The following day, ear thickness of both ears was measured. This procedure was continued for five consecutive days.
In a second experiment, solution was applied to each ear after exposure to UVB irradiation. The following day, the thickness of both ears was measured. UVB irradiation was only applied once and solutions were administered a total of five times (once a day/consecutive five days).

hairless Skh-1 mice = assay: UVB-induced chronic skin damage: skin wrinkling score after 10 weeks; type: in vivo, mice (hairless Skh-1)
Method: Mice of groups 1 and 3 were exposed to UVB irradiation, using fluorescent lamps (Southern New England Ultraviolet). The height of the lamps was adjusted to deliver 0.35 mW/cm^2 at the dorsal skin surface of the mice. Samples were applied (100 μl) on the back of UVB irradiated and non-UVB irradiated mice. This procedure was repeated three times weekly for 10 weeks. […] The total cumulative dose of UVB was 6.54 J/cm^2.
After 10 weeks, skin wrinkling was evaluated by two independent persons according to five categories (0: no wrinkle; 1: slight wrinkle, 2: clear wrinkle, 3: strong wrinkle; 4: severe wrinkle).

back skin of mice = assay: Primary irritation score on clipped back skin of mice; type: in vivo, mice (FVB strain); conditions: for irritation category (0-4): 5 μl topical daily
Method: A third primary irritation experiment was performed. Back skin of mice (FVB strain, female, 7 weeks of age, n=3-4/group) was clipped of hair with an electric clipper and 5 μl of each solution was topically applied. The following day, irritation was evaluated according to five categories (0: no irritation, 1; slight irritation, 2:clear irritation, 3:strong irritation, 4:severe irritation) and 5 μl of each solution was topically applied. This procedure was continued for a total of five consecutive days.

Cn1c(=O)c2c(ncn2C)n(C)c1=O [caffeine]
ear thickness compared to solvents (DMSO or acetone) (mice ears; 2% in DMSO or 1.2% in acetone, with or without UVB): did not increase ear thickness | primary irritancy (ear) (mice ears; concentration of 2% in DMSO or 1.2% in acetone): did not have primary irritancy | UVB-induced wrinkle formation (hairless Skh-1 mice; 1.2% in acetone, topical, 10 weeks): effective at reducing UVB-induced wrinkle formation | skin wrinkling score, average (hairless Skh-1 mice; group 2: No UVB + 1.2% caffeine in acetone, 100 μl on back three times weekly, after 10 weeks, scale 0 no wrinkle to 4 severe wrinkle): 0 | irritation category (0-4) (back skin of mice; 0.5% caffeine in DMSO, day 0): 0 | irritation category (0-4) (back skin of mice; 0.5% caffeine in DMSO, day 1): 0 | irritation category (0-4) (back skin of mice; 0.5% caffeine in DMSO, day 2): 0 | irritation category (0-4) (back skin of mice; 0.5% caffeine in DMSO, day 3): 0 | irritation category (0-4) (back skin of mice; 0.5% caffeine in DMSO, day 4): 0 | irritation category (0-4) (back skin of mice; 0.5% caffeine in DMSO, day 5): 0 | irritation category (0-4) (back skin of mice; 0.5% caffeine in acetone, day 0): 0 | irritation category (0-4) (back skin of mice; 0.5% caffeine in acetone, day 1): 0 | irritation category (0-4) (back skin of mice; 0.5% caffeine in acetone, day 2): 0 | irritation category (0-4) (back skin of mice; 0.5% caffeine in acetone, day 3): 0 | irritation category (0-4) (back skin of mice; 0.5% caffeine in acetone, day 4): 0 | irritation category (0-4) (back skin of mice; 0.5% caffeine in acetone, day 5): 0 | irritation category (0-4) (back skin of mice; 1.2% caffeine in acetone, day 0): 0 | irritation category (0-4) (back skin of mice; 1.2% caffeine in acetone, day 1): 0 | irritation category (0-4) (back skin of mice; 1.2% caffeine in acetone, day 2): 0 | irritation category (0-4) (back skin of mice; 1.2% caffeine in acetone, day 3): 0 | irritation category (0-4) (back skin of mice; 1.2% caffeine in acetone, day 4): 0 | irritation category (0-4) (back skin of mice; 1.2% caffeine in acetone, day 5): 0 | irritation category (0-4) (back skin of mice; 2% caffeine in DMSO, day 0): 0 | irritation category (0-4) (back skin of mice; 2% caffeine in DMSO, day 1): 0 | irritation category (0-4) (back skin of mice; 2% caffeine in DMSO, day 2): 0 | irritation category (0-4) (back skin of mice; 2% caffeine in DMSO, day 3): 0 | irritation category (0-4) (back skin of mice; 2% caffeine in DMSO, day 4): 0 | irritation category (0-4) (back skin of mice; 2% caffeine in DMSO, day 5): 0 | irritation in mouse skin (back skin of mice; back skin, five consecutive days): did not cause irritation | primary irritancy (back skin) (back skin of mice; concentration of 2% in DMSO and 1.2% in acetone): did not have primary irritancy
